Reference: patent US9505728B2, “Triazolone compounds and uses thereof” (INCEPTION 2, INC., priority 2012, dated 2016)

Target: T1, Human PPARα (Homo sapiens, UniProt Q07869)
T1 construct: host or cells: proprietary non-human mammalian cells
T1 sequence (Q07869 1-468): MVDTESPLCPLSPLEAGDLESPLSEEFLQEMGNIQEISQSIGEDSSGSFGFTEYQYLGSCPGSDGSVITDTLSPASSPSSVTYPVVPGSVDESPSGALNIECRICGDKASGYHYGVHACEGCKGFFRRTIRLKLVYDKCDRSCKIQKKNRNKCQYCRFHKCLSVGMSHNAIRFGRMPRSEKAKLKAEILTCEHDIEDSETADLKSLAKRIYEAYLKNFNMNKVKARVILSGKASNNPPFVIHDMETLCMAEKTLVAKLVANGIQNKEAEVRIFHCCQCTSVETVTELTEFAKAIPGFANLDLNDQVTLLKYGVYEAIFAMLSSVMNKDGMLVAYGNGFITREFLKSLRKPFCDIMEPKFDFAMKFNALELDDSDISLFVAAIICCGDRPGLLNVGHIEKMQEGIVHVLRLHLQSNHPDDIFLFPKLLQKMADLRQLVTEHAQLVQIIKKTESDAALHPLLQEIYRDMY
Experiment: Human PPARα Reporter Assay (luciferase)
Assay type: cell-based
Conditions: human PPARα reporter cells, overnight incubation, antagonism; read-out: Luciferase IC50
In short: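 Agonist or antagonist activity read as luciferase light from engineered reporter cells carrying human PPARα and a responsive reporter gene. Cells got compound immediately on dispensing, incubated overnight, then treatment media swapped for luciferase detection reagent.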

Row | Structure (SMILES) | IC50 [nM]
1 | CCn1c(CCCc2ccc(-c3ccc(OC)c(CC(=O)O)c3)cc2OC)nn(Cc2ccc(C(C)(C)C)cc2)c1=O [Example 158, 2-(4′-(3-(1-(4-(tert-Butyl)benzyl)-4-ethyl-5-oxo-4,5-dihydro-1H-1,2,4-triazol-3-yl)propyl)-3′,4-dimethoxy-[1,1′-biphenyl]-3-yl)acetic acid] | 184
2 | CCn1c(CCCc2ccc(-c3cccc(NC(=O)c4ccccc4)n3)cc2)nn(Cc2ccc(C(C)(C)C)cc2)c1=O [Example 97, N-(6-{4-[3-(1-{[4-(tert-Butyl)phenyl]methyl}-4-ethyl-5-oxo(1,2,4-triazolin-3-yl))propyl]phenyl}(2-pyridyl))benzamide] | 745
3 | CCn1c(CCCc2ccc(-c3ccc(OC)c(C4(C(=O)O)CC4)c3)cc2)nn(Cc2ccc(C(C)(C)C)cc2)c1=O [Example 128, 1-(4′-(3-(1-(4-(tert-Butyl)benzyl)-4-ethyl-5-oxo-4,5-dihydro-1H-1,2,4-triazol-3-yl)propyl)-4-methoxy-[1,1′-biphenyl]-3-yl)cyclopropanecarboxylic acid] | 281
4 | CCC(=O)NS(=O)(=O)Cc1cccc(-c2ccc(CCCc3nn(Cc4ccc(C(C)(C)C)cc4)c(=O)n3CC)cc2)c1 [Example 116, N-(((4′-(3-(1-(4-(tert-Butyl)benzyl)-4-ethyl-5-oxo-4,5-dihydro-1H-1,2,4-triazol-3-yl)propyl)-[1,1′-biphenyl]-3-yl)methyl)sulfonyl)propionamide] | 987
5 | CCn1c(CCCc2ccc(-c3ccc(OC)c(CC(=O)NS(C)(=O)=O)c3)cc2)nn(Cc2ccc(C(C)(C)C)cc2)c1=O [Example 135, 2-(4′-(3-(1-(4-(tert-Butyl)benzyl)-4-ethyl-5-oxo-4,5-dihydro-1H-1,2,4-triazol-3-yl)propyl)-4-methoxy-[1,1′-biphenyl]-3-yl)-N-(methylsulfonyl)acetamide] | 192
6 | CCn1c(CCCc2ccc(-c3cc(C(F)(F)F)cc(CC(=O)O)n3)cc2)nn(Cc2ccc(C(C)(C)C)cc2)c1=O [Example 48, 2-(6-{4-[3-(1-{[4-(tert-Butyl)phenyl]methyl}-4-ethyl-5-oxo(1,2,4-triazolin-3-yl))propyl]phenyl}-4-(trifluoromethyl)-2-pyridyl)acetic acid] | 426
7 | CCn1c(CCCc2ccc(-c3cc(C(=O)O)c(OC)cn3)cc2)nn(Cc2ccc(C(C)(C)C)cc2)c1=O [Example 140, 2-(4-(3-(1-(4-(tert-Butyl)benzyl)-4-ethyl-5-oxo-4,5-dihydro-1H-1,2,4-triazol-3-yl)propyl)phenyl)-5-methoxyisonicotinic acid] | 396
8 | CCn1c(CCCc2ccc(-c3ccc(OC)c(CNS(C)(=O)=O)c3)cc2)nn(Cc2ccc(C(C)(C)C)cc2)c1=O [Example 186, 1-{[4-(tert-Butyl)phenyl]methyl}-4-ethyl-3-{3-[4-(4-methoxy-3-{[(methylsulfonyl)amino]methyl}phenyl)phenyl]propyl}-1,2,4-triazolin-5-one] | 587
9 | CCn1c(CCCc2ccc(-c3ccc(OC)c(CN)c3)cc2)nn(Cc2ccc(C(C)(C)C)cc2)c1=O [Example 184, 3-(3-{4-[3-(Aminomethyl)-4-methoxyphenyl]phenyl}propyl)-1-{[4-(tert-butyl)phenyl]methyl}-4-ethyl-1,2,4-triazolin-5-one] | 534
10 | CCn1c(CCCc2ccc(-c3cccc(C4(C(N)=O)CC4)c3)cc2)nn(Cc2ccc(C(C)(C)C)cc2)c1=O [Example 14, 1-(4′-(3-(1-(4-(tert-butyl)benzyl)-4-ethyl-5-oxo-4,5-dihydro-1H-1,2,4-triazol-3-yl)propyl)-[1,1′-biphenyl]-3-yl)cyclopropanecarboxamide] | 284
11 | CCNC(=O)Nc1ccc(-c2ccc(CCCc3nn(Cc4ccc(C(C)(C)C)cc4)c(=O)n3CC)cc2)nc1 [Example 169, 1-(6-(4-(3-(1-(4-(tert-Butyl)benzyl)-4-ethyl-5-oxo-4,5-dihydro-1H-1,2,4-triazol-3-yl)propyl)phenyl)pyridin-3-yl)-3-ethylurea] | 535
12 | CCn1c(CCCc2ccc(-c3cccc(CNS(=O)(=O)c4ccccc4)c3)cc2)nn(Cc2ccc(C(C)(C)C)cc2)c1=O [Example 177, 1-{[4-(tert-Butyl)phenyl]methyl}-4-ethyl-3-{3-[4-(3-{[(phenylsulfonyl)amino]methyl}phenyl)phenyl]propyl}-1,2,4-triazolin-5-one] | 419

Now those with a lower IC50, led by results:

Row | IC50 [nM] | Structure (SMILES)
13 | 15 | CCn1c(CCCc2ccc(-c3ccc(OC(F)(F)F)c(C(=O)O)c3)cc2)nn(Cc2ccc(C(C)(C)C)cc2)c1=O [Example 131, 4′-(3-(1-(4-(tert-Butyl)benzyl)-4-ethyl-5-oxo-4,5-dihydro-1H-1,2,4-triazol-3-yl)propyl)-4-(trifluoromethoxy)-[1,1′-biphenyl]-3-carboxylic acid]
14 | 33 | CCn1c(CCCc2ccc(-c3ccnc(NS(=O)(=O)c4ccccc4)n3)cc2)nn(Cc2ccc(C(C)(C)C)cc2)c1=O [Example 138, N-(4-(4-(3-(1-(4-(tert-Butyl)benzyl)-4-ethyl-5-oxo-4,5-dihydro-1H-1,2,4-triazol-3-yl)propyl)phenyl)pyrimidin-2-yl)benzenesulfonamide]
15 | 5 | CCOc1ccc(-c2ccc(CCCc3nn(Cc4ccc(C(C)(C)C)cc4)c(=O)n3CC)cc2)nc1NS(=O)(=O)c1ccccc1 [Example 62, 1-{[4-(tert-Butyl)phenyl]methyl}-3-[3-(4-{5-ethoxy-6-[(phenylsulfonyl)amino](2-pyridyl)}phenyl)propyl]-4-ethyl-1,2,4-triazolin-5-one]
16 | 63 | CCn1c(CCCc2ccc(-c3ccc(NS(C)(=O)=O)cn3)cc2)nn(Cc2ccc(C(C)(C)C)cc2)c1=O [Example 12, N-(6-(4-(3-(1-(4-(tert-Butyl)benzyl)-4-ethyl-5-oxo-4,5-dihydro-1H-1,2,4-triazol-3-yl)propyl)phenyl)pyridin-3-yl)methanesulfonamide]
17 | 15 | CCn1c(CCC(F)(F)c2ccc(-c3ccc(OC)c(CC(=O)O)c3)cc2)nn(Cc2ccc(C(C)(C)C)cc2)c1=O [Example 163, 2-(4′-(3-(1-(4-(tert-Butyl)benzyl)-4-ethyl-5-oxo-4,5-dihydro-1H-1,2,4-triazol-3-yl)-1,1-difluoropropyl)-4-methoxy-[1,1′-biphenyl]-3-yl)acetic acid]
18 | 106 | CCn1c(CCCc2ccc(-c3ccc(C4(O)COC4)cn3)cc2)nn(Cc2ccc(C(C)(C)C)cc2)c1=O [Example 197, 1-(4-(tert-Butyl)benzyl)-4-ethyl-3-(3-(4-(5-(3-hydroxyoxetan-3-yl)pyridine-2-yl)phenyl)propyl)-1H-1,2,4-triazol-5(4H)-one]
19 | 10 | CCOc1ccc(-c2ccc(CCCc3nn(Cc4ccc(C(C)(C)C)cc4)c(=O)n3CC)cc2)cc1CC(=O)O [Example 38, 2-(4′-(3-(1-(4-(tert-Butyl)benzyl)-4-ethyl-5-oxo-4,5-dihydro-1H-1,2,4-triazol-3-yl)propyl)-4-ethoxy-[1,1′-biphenyl]-3-yl)acetic acid]
20 | 61 | CCn1c(CCCc2ccc(-c3ccc(OC)c(NS(=O)(=O)c4ccccc4)c3)cc2)nn(Cc2ccc(C(C)(C)C)cc2)c1=O [Example 151, 1-{[4-(tert-Butyl)phenyl]methyl}-4-ethyl-3-[3-(4-{4-methoxy-3-[(phenylsulfonyl)amino]phenyl}phenyl)propyl]-1,2,4-triazolin-5-one]
